This is an account of results in patent US20050119330A1, “Use of antiproliferative agents in the treatment and prevention of pulmonary proliferative vascular diseases” (priority 2003, published 2005).

Test [1] relates to pneumonectomized, monocrotaline-treated rats. The experiment in a line: Chronic model of pulmonary arterial hypertension (monocrotaline four weeks after pneumonectomy), rescue treatment. Format: in vivo. On the procedure:
Methods: Rats were treated as described in Example 1, except that monocrotaline was administered four weeks after pneumonectomy. Pulmonary hypertension developed at Week 8 and increased in severity until death at Week 13. […] Hemodynamic measurements were performed on control and treated rats in order to determine mean arterial pressures and pressures at the right ventricle.
A quantitative analysis of neointimal luminal obstruction on 25 consecutive small pulmonary arteries from each rat in Group N, PMV0w, PMV2w, PMS2w, PMS6w, and PMS13w was performed (FIGS. 10A-10D). Histological samples were prepared and stained using Elastin-van-Geison (EVG) stain, ×600. Vessels were assessed for neointimal proliferative lesions and scored: Grade 0 for no evidence of neointimal formation, Grade 1 for less than 50% luminal occlusion, Grade 2 for >50% luminal occlusion.

For test [2] the test system is unchanged. The experiment in a line: Acute model of pulmonary arterial hypertension (left pneumonectomy, monocrotaline on Day 7). Format: in vivo, Sprague-Dawley rats. The settings on record: for right ventricular systolic pressure (RVSP): Day 35; for mean pulmonary arterial pressure (mPAP): measured Day 35; for vascular occlusion score (VOS), 0 to 2: 25 consecutive small pulmonary arteries per rat. On the procedure: Methods: On Day, 0, thirty pathogen-free 13-week-old, male Sprague-Dawley rats (350-400 g) were intubated, anesthetized with halothane (0.5%), and then underwent left pneumonectomy via thoracotomy as described in Faul, J. L. et al. (2000) Am. J. Respir. Crit. Care Med. 162:2252-2258; and Nishimura, R. et al., (2001) Am. J. Respir. Crit. Care Med. 163:498-502. On Day 7, rats received a single subcutaneous injection in the right hind limb of the plant alkaloid monocrotaline (60 mg/kg; Sigma, St. Louis, Mo.). Rats that were not subjected to any treatment were also included in the study (“normal” or “N”).
Twenty-four rats received monocrotaline (60 mg/kg s.c.), seven days after pneumonectomy. […] Rats that were not subjected to any treatment were also included in the study (“normal” or “N”). Rats in the control group, PMV (n=6), received vehicle (V) by oral gavage every day, beginning on Day 5.
On Day 35, rats underwent pulmonary artery catheterization for measurements of mean pulmonary artery pressures and right ventricular systolic pressures. Mean arterial, mean pulmonary arterial and right ventricular systolic blood pressures (mPAP and RVSP, respectively) were measured as described by Faul et al. and Nishimura et al. After exsanguination, the right lung, right ventricle and left ventricle plus septum were collected for histology. The organs were weighed and preserved and the RV/LV&S ratios determined. Organs fixed in formalin were embedded in paraffin, cut in 3 micron sections and stained with hematoxylin and eosin, and with elastin-von Geison stain.
The severity of neointimal formation was scored on elastin-van Geison (EVG)-stained lung sections: the absence of neointimal formation equals 0; the presence of neointimal proliferation causing less than 50% luminal narrowing equals 1; luminal narrowing greater than 50% equals 2. Immunohistochemistry was performed on formalin-fixed, paraffin-embedded lung sections using antibodies to α-smooth-muscle actin (Dako, 1:30 dilution, linked to alkaline phosphatase), and CD31, a monoclonal antibody with specificity for endothelial cells lining the vascular lumen (Dako, 1:40 dilution, detected using avidin-biotin-peroxidase method). Samples of right lung were immediately placed in 2.5% paraformaldehyde and routinely processed for transmission electron microscopy. Reverse-transcription PCR was used to amplify portions of the rat endothelial nitric oxide synthase gene (eNOS, GenBank U02534) and actin B (GenBank V01217) from rat lung. Primer sequences for eNOS were: 5′-[…]-3′ (SEQ ID NO:1) and 5′-[…]-3′ (SEQ ID NO:2). Five micrograms of total lung RNA were reverse-transcribed and amplified by PCR as described in Aoki, Y., et al. (1997) Am. J. Physiol. 272:L272-284. Endothelial NOS protein (60 μg) was analyzed by Western immunoblotting as described in Zhao, G. et al. (2000) Am. J. Physiol. 279:L958-L966, using anti-eNOS primary antibody (Santa Cruz sc-8311).

Test [3] deals with pneumonectomized, monocrotaline treated rats. The settings on record: Faul et al. 2000; Nishimura 2001; cited from earlier work.
Where [4] appears, read: Group PMS2w: two weeks of treatment.
Setting [5] is: Group PMS6w: 6 weeks of treatment.
[6] abbreviates: after 13 weeks of simvastatin treatment.

Where “and” joins values, the source holds several entries; their conditions need not be identical. Identical values can stand only once.

On to `CCC(C)(C)C(=O)O[C@H]1C[C@@H](C)C=C2C=C[C@H](C)[C@H](CC[C@@H]3C[C@@H](O)CC(=O)O3)[C@H]21` [simvastatin], for which the “mean pulmonary arterial pressure (mPAP)” value in test [1] (Group PMS2w: 2 mg/kg/day for two weeks from Week 11) is 36±2 mm Hg; in test [1] (Group PMS6w: 2 mg/kg/day for 6 weeks from Week 11), 24±3 mm Hg; in test [1] (setting [6]) it was 22±3 mm Hg; in test [2] (Group PMS5-14: simvastatin 2 mg/kg/day oral gavage Days 5-14), 44±4 mm Hg; in test [2] (Group PMS5-35: simvastatin 40 mg/kg/day oral gavage Days 5-35) it was 27±3 mm Hg and 27 mm Hg; in test [2] (Group PMS15-35: simvastatin 40 mg/kg/day oral gavage Days 15-35) it was 38±3 mm Hg. Further, the “right ventricular systolic pressure (RVSP)” value is 53±7 mmHg in test [1] (setting [4]); 34±3 mmHg in test [1] (setting [5]); 30±3 mmHg in test [1] (setting [6]); 66±12 mm Hg in test [2] (Group PMS5-14: 2 mg/kg/day oral gavage Days 5-14); 37±4 mm Hg in test [2] (Group PMS5-35: 40 mg/kg/day oral gavage Days 5-35); 54±10 mm Hg in test [2] (Group PMS15-35: 40 mg/kg/day oral gavage Days 15-35). Further, the “vascular occlusion score (VOS), 0 to 2” value in test [1] (setting [4]) was 1.34; in test [1] (setting [5]), 0.83; in test [1] (Group PMS13w: 13 weeks of treatment), 0.65; in test [2] (Group PMS5-14), 0.78±0.40; in test [2] (Group PMS5-35) it was 1.5 and 0.59±0.46; in test [2] (Group PMS15-35), 0.93±0.38. Also, the survival in test [1] (simvastatin 2 mg/kg/day oral gavage from Week 11, no mortality up to Week 23, vehicle 0% survival at Week 15) worked out at 100%.

As to `CC(C)[C@]12O[C@H]1[C@@H]1O[C@]13[C@]1(O[C@H]1C[C@H]1C4=C(CC[C@@]13C)C(=O)OC4)[C@@H]2O` [triptolide], the “development of pulmonary arterial hypertension and neointimal formation” value in test [3] is “could inhibit the development of pulmonary arterial hypertension and neointimal formation”.
